The values that follow come from patent publication US4642364A, “Unsaturated eicosanoic acids” (Hoffmann-La Roche Inc., priority 1986, dated 1987).

In the experiment the test system is SRS-A synthesis (Rat Peritoneal Cells). The experiment in a line: Inhibition of the in vitro synthesis of SRS-A in rat peritoneal cells (ionophore A23187 challenge, guinea pig ileum bioassay). The format is cell-based, rat (male Sprague-Dawley). To be noted: for inhibition at 10 µM: p values given. From the text:
To study the effect of drugs on SRS-A synthesis in rat peritoneal cells, these cells (including mast cells, monocytes, eosinophils and neutrophils)were isolated from male Sprague-Dawley rats (Charles River Laboratories) weighing 180-220 g by the lavage procedure described by Herzig, D. J. and Kusner, E. J., Journal of Pharmacology and Experimental Therapeutics, 194, 457-462 (1975) with the exception that Hanks balanced salt solution used in these experiments was adjusted to pH 6.9 with 5% (V/V) of 0.1M aqueous phosphate buffer and contained 50 m/gml sodium heparin. After removal from the peritoneal cavity of rats, the cells were subsequently isolated by centrifugation at 400×gravity for 10 minutes at 4° C. and resuspended to a concentration of about 2,000,000 cells per ml in Hanks buffer.
Samples for evaluation were prepared by adding various concentrations of test drugs to 2 ml aliquots of the resuspended cells in Hanks buffer. The 2 ml samples used for control contained 2 ml aliquots of resuspended cells in Hanks buffer without drugs. All of the above samples (2 ml final volume) were preincubated at 37° C. for 10 minutes in the presence of varying concentrations of test drug prior to challenge with 5×10^-7 M ionophore […]. This ionophore is disclosed in Burka and Flower, Br. J. Pharmacology 65: 35-41 (1979). Antibiotic A23187 was used as a probe for the study of calcium and magnesium function in biological systems. After ionophore challenge, SRS-A was synthesized in the samples by the cells for 10 minutes (at 37° C.) after which this synthesis was terminated by placing the samples in a boiling water bath for 10 minutes followed by centrifugation at 2,000×g (10 minutes) at 4° C. to remove coagulated protein and cellular debris. The SRS-A present in the resulting supernatants was quantitated by a bioassay using a guinea pig ileum as described in Orange, and Austen, Adv. Immunol. 10: 105-144 144 (1969). For this bioassay, a 1.5 cm segment of ileum was removed from animals weighing 300 to 400 g and suspended in an organ bath containing 10 ml of Tyrodes solution with 10^-6 M atropine sulfate and 10^-6 M pyrilamine maleate. The bath was maintained at 37° C. and aerated with a mixture of 95% O2 and 5%CO2. The concentration of SRS-A in the experimental samples was determined by a comparison of the isotonic contraction responses elicited by the samples with those obtained with varying amounts of an SRS-A standard solution prepared from chopped guinea pig lung as disclosed in Hitchcock, M. J. Pharmacol. Exp. Ther. 207: 630-640 (1978) and quantituted by the procedures of Orange, R. R. and Austen, K. F. Adv. Immunol. 10: 105-144 (1969) against histamine (1 unit of SRS-A being that amount which gives a contractile response similar to that of […] of histamine). In the absence of drug, the ionophore A23187-induced SRS-A synthesis varied between 40 to 50 units of SRS-A per 10^6 cells. In the presence of increasing concentrations of test drug, there was a concentration-related decrease in SRS-A synthesis. [formula] at each concentration of the various test drugs was calculated. The concentration of test drug which inhibits the synthesis of SRS-A by 50% (IC50) was determined for each test drug from a plot of the mean percent inhibition versus the log of drug concentration. The difference of units of SRS-A in the test sample used in the fraction given above was obtained by subtracting from the units of SRS-A in the control from the actual measurement of the units of SRS-A in the sample.

With `CCCCCC#CCC#CCCCCCCCC(=O)O` [9,12-Octadecadiynoic Acid, reference compound], half-maximal inhibition (IC50) was put at 3000 nM and 10 µM produced 87 ± 1% inhibition.

For the compound `CCCCC/C=C\C/C=C\CC#CCC#CCCCC(=O)O` [Compound 3, (Z,Z)-11,14-eicosadien-5,8-diynoic acid], the inhibition at 10 µM was determined as 81 ± 6%.

`CCCCCCCC/C=C\CC#CCC#CCCCC(=O)O` [Compound 5, (Z,Z)-11-eicosen-5,8-diynoic acid] showed an IC50 of 1000 to 3000 nM and an inhibition at 10 µM of 100%.

`CCCCC/C=C\CCCCC#CCC#CCCCC(=O)O` [Compound 6, (Z)-14-eicosen-5,8-diynoic acid] displayed an IC50 of 1000 to 3000 nM and an inhibition at 10 µM of 100%.
